Source: PMC9732672, “Pyrazolyl-s-triazine with indole motif as a novel of epidermal growth factor receptor/cyclin-dependent kinase 2 dual inhibitors” (Frontiers in Chemistry, 2022)
Each block holds one compound with its values, some of them ahead of it.

Tests used:
CDK6 = test system: CDK6; parameters: method as in Kumar et al., 2019; details: Figure 1; ref Kumar et al., 2019; read-out: CDK-inhibitor IC50, CDK6; cited from earlier work
CDK4 = test system: CDK4; parameters: method as in Kumar et al., 2019; details: Figure 1; ref Kumar et al., 2019; read-out: CDK-inhibitor IC50, CDK4; cited from earlier work
CDK2-A = test system: CDK2-A; parameters: method as in Kumar et al., 2019; details: Figure 1; ref Kumar et al., 2019; read-out: CDK-inhibitor IC50, CDK2-A; cited from earlier work
CDK1 = test system: CDK1; parameters: method as in Kumar et al., 2019; details: Figure 1; ref Kumar et al., 2019; read-out: CDK-inhibitor IC50, CDK1; cited from earlier work
A549 cells = assay: Flow cytometry, Annexin V/PI staining; type: cell-based, human; details: A549, IC50 value, 48 h
Experimental: A549 cells were seeded into 6-well culture plates (3-5× 10^5 cells/well) and incubated overnight. […] Next, media supernatants and cells were collected and rinsed with ice-cold PBS. The cells were then suspended in the flow cytometry solutions and cells were stained with Annexin V/PI, and data was acquired using a Cytoflex FACS machine. Data were analyzed using cytExpert software. ([Hisham et al., 2019]; [Khodair et al., 2019]; [Nafie et al., 2020b]).

EGFR = target: T1, EGFR (Homo sapiens, UniProt P00533); assay: EGFR-TK kinase assay (ADP-Glo); type: biochemical
T1 construct: purchased Promega V9261
T1 sequence (P00533 25-1210): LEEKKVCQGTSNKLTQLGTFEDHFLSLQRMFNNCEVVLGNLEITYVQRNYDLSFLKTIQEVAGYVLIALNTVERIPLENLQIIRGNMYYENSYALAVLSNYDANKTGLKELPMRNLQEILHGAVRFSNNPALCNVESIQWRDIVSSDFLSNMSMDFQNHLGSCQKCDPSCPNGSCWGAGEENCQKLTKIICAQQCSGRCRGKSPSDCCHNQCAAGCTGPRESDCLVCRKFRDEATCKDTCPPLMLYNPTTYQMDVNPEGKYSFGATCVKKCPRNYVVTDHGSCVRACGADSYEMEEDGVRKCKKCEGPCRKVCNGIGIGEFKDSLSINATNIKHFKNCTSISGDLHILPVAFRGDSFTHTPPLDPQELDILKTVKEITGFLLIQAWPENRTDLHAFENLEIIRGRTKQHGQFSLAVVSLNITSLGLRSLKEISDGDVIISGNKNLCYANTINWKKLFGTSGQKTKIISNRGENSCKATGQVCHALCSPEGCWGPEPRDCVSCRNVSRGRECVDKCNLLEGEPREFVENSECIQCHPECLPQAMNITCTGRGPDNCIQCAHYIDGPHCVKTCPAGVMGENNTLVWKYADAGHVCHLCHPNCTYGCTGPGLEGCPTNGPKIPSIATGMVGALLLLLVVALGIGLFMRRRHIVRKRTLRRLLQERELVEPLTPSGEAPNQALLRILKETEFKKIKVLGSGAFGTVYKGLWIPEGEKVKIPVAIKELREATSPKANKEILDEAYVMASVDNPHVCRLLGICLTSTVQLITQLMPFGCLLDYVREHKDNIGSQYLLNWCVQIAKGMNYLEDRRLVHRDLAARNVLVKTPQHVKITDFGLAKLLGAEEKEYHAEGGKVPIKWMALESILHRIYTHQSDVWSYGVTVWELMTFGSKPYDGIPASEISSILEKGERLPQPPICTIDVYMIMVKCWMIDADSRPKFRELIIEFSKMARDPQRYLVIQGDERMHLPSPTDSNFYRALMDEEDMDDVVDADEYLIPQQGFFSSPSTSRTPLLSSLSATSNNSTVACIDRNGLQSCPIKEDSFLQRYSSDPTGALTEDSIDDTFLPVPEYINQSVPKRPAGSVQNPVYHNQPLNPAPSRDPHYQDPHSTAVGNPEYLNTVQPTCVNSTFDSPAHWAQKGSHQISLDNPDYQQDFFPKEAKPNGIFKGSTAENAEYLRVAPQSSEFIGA
Experimental: EGFR-TK assay kit (ADP-Glo™ kinase assay, Cat No. V9261, Promega, United States) kinase assay was performed to evaluate the capacity of 3h, 3i, and 3j to inhibit EGFR.

[1] = test system: apoptosis-related genes in A549 cells; assay: Gene expression analysis by RT-PCR; type: cell-based, human; details: A549 treated at IC50; normalized to β-actin; 2^-ΔΔCT
CDK-2 = CDK-2 (Homo sapiens, UniProt P24941); assay: CDK-2 enzyme inhibition; type: biochemical
[2] = test system: HDFs (non-cancerous human dermal fibroblasts); assay: MTT cytotoxicity assay, HDFs; type: cell-based; details: Homo sapiens, Fibroblast, non-cancerous cells, average ±SD of four independent experiments, read-out: IC50 ± STDEV, HDFs
Experimental: (§1) The parental MCF7 (breast cancer cell line), A549 (non-small cell lung cancer cell line), and human dermal fibroblast (HDF) (human dermal cell line) cells were obtained from the American Type Culture Collection (ATCC, Manassas, VA, United States). MCF7 and A549 cells were cultured in RPMI 1640 medium (EuroClone, Italy) supplemented with 10% (v/v) heat-inactivated fetal bovine serum (FBS) (EuroClone, Italy), 1% penicillin-streptomycin (EuroClone, Italy), and 2 mM L-glutamine.
(§2) The cytotoxic activity of the tested compounds were tested using MTT assay. […] Then, the cell viability was recored and IC50 values were calcualted. ([Mosmann, 1983]; [Nafie et al., 2020c]).

[3] = test system: A549 (non-small cell lung cancer) cells; assay: MTT cytotoxicity assay, A549; type: cell-based, human; details: Homo sapiens, A549, average ±SD of four independent experiments, read-out: IC50 ± STDEV, A549
Experimental: as §1, §2

[4] = test system: MCF-7 (breast cancer) cells; assay: MTT cytotoxicity assay, MCF-7; type: cell-based, human; details: Homo sapiens, MCF7, average ±SD of four independent experiments, read-out: IC50 ± STDEV, MCF-7
Experimental: as §1, §2

5-HT7R = target: 5-HT7R; parameters: method as in Kułaga et al., 2020; details: ref Kułaga et al., 2020; read-out: Ki, 5-HT7 receptors; cited from earlier work

Structure (SMILES): OCCCNc1cc(-c2ncnc(Nc3cccc(Cl)c3)n2)ccn1 [XVI]
IC50 (CDK6): 356 nM
IC50 (CDK4): 308 nM
IC50 (CDK2-A): 7 nM
IC50 (CDK1): 21 nM

IC50 (EGFR; Mean ± SD of three independent replicates, read-out: EGFR inhibition IC50): 34.1 ± 1.58 nM
inhibition at 10 µM (EGFR; at 10 µM): 93.6%
IC50 (CDK-2; Mean ± SD of three independent replicates): 108 ± 3.12 nM
inhibition at 10 µM (CDK-2; at 10 µM): 91.4%
Structure (SMILES): Nc1cc(-c2c[nH]c3ccccc23)nn1-c1nc(Nc2ccc(Cl)cc2)nc(N2CCOCC2)n1 [Compound 3i, 4-(5-Amino-3-(1H-indol-3-yl)-1H-pyrazol-1-yl)-N-(4-chlorophenyl)-6-morpholino-1,3,5-triazin-2-amine]
cells undergoing late apoptosis (A549 cells; control 0.16%): 19.5%
cells undergoing early apoptosis (A549 cells; control 0.42%): 24.2%
total apoptosis (A549 cells; control 0.61%): 43.7%
total apoptotic cell death, fold vs control (A549 cells; control 0.61%): 71.6 fold
necrosis-mediated cell death (A549 cells; control 0.97%): 4.08%
necrosis-mediated cell death, fold increase (A549 cells; control 0.97%): 4.2 fold
Bax gene expression, fold of change [1]: 3.56 fold
Bcl-2 gene expression, fold change [1]: 0.23 fold
P53 gene expression, fold of change [1]: 4.55 fold
caspase 3 gene expression, fold of change [1]: 6.96 fold
caspase 8 gene expression, fold of change [1]: 1.49 fold
caspase 9 gene expression, fold of change [1]: 7 fold
IC50 [2]: 3.78 ± 0.55 µM
IC50 [3]: 2400 ± 640 nM
IC50 [4]: 3.28 ± 0.16 µM

Structure (SMILES): OCCCNc1cncc(-c2ncnc(Nc3cccc(Cl)c3)n2)c1 [XVII]
IC50 (CDK1): 60 nM

Structure (SMILES): COc1nc(NCCc2c[nH]c3ccccc23)nc(Nc2ccc3[nH]ncc3c2)n1 [XV]
Ki (5-HT7R): < 60 nM

Structure (SMILES): Nc1nc(NCCOc2ccccc2)nc(NCCc2c[nH]c3ccccc23)n1 [XIV]
Ki (5-HT7R): < 60 nM
